The values that follow come from patent publication US11066369B2, “N-(pyridin-2-yl)pyridine-sulfonamide derivatives and their use in the treatment of disease” (Novartis AG, priority 2016, dated 2021).

The target of test [1] is T1, horseradish peroxidase (HRP) tagged delF508-CFTR (Homo sapiens, UniProt P13569, DEL508-508).
T1 construct: expressed in transfected cells
Kind of test: Measurement of delF508-CFTR-HRP surface expression in CFBE41o- cells.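 On DelF508-CFTR-HRP Amax %: percent efficacy relative to reference corrector lumacaftor.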 As to conditions: delF508-CFTR-HRP surface expression, CFBE41o- cells; for Emax: read-out: DelF508-CFTR-HRP Amax %; for EC50: read-out: DelF508-CFTR-HRP EC50. Format: cell-based. In outline:
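Surface-trafficked delF508-CFTR detected via extracellular HRP tag, read as luminescence from a membrane-impermeant substrate in CFBE41o- cells. Cells pre-induced 48h with 500 ng/mL doxycycline, then exposed 24h at 37° C to a 10-point, 3-fold dilution series from 10 μM (DMSO ≤0.5%). Triplicate dose-responses fitted logistically for EC50 after per-plate normalization; fold change versus reference compound.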

The target in test [2] is T2, delF508-CFTR (Homo sapiens, UniProt P13569, DEL508-508).
T2 construct: functional activity of the CFTR channel (Chloride ion transport) in patient derived primary human bronchial epithelial cells; host or cells: patient-derived primary human bronchial epithelial cells (delF508-CFTR)
Kind of test: Measurement of delF508-CFTR functional activity in primary human bronchial epithelial cells (HBECs) using Multi-Transepithelial Clamp Circuit (MTECC-24) assay. It is filed as cell-based. As to conditions: primary CF HBECs; for MTECC24 CFHBEC- Amax %: test compound added 24h before assay plus potentiator, relative to reference combination (2 μM corrector + 0.5 μM potentiator); for EC50: test compound added 24h before assay, in the presence of potentiator, mean of at least two replicates, read-out: MTECC24 CFHBEC- EC50. In a few lines:
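Compound tested as 10-point, 1-in-3 concentration response (0.1% or 0.2% DMSO), 24 h basolateral pre-incubation, then re-added to both sides. MTECC-24 measured Ieq in ALI-differentiated primary delF508 bronchial cells after amiloride, forskolin activation, potentiator and INH-172 block; data normalized to DMSO baseline, EC50 fitted.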

Counter-ions that a name gives are not always drawn.

T2 sequence (P13569 with tags, fused parts or gaps DEL508-508): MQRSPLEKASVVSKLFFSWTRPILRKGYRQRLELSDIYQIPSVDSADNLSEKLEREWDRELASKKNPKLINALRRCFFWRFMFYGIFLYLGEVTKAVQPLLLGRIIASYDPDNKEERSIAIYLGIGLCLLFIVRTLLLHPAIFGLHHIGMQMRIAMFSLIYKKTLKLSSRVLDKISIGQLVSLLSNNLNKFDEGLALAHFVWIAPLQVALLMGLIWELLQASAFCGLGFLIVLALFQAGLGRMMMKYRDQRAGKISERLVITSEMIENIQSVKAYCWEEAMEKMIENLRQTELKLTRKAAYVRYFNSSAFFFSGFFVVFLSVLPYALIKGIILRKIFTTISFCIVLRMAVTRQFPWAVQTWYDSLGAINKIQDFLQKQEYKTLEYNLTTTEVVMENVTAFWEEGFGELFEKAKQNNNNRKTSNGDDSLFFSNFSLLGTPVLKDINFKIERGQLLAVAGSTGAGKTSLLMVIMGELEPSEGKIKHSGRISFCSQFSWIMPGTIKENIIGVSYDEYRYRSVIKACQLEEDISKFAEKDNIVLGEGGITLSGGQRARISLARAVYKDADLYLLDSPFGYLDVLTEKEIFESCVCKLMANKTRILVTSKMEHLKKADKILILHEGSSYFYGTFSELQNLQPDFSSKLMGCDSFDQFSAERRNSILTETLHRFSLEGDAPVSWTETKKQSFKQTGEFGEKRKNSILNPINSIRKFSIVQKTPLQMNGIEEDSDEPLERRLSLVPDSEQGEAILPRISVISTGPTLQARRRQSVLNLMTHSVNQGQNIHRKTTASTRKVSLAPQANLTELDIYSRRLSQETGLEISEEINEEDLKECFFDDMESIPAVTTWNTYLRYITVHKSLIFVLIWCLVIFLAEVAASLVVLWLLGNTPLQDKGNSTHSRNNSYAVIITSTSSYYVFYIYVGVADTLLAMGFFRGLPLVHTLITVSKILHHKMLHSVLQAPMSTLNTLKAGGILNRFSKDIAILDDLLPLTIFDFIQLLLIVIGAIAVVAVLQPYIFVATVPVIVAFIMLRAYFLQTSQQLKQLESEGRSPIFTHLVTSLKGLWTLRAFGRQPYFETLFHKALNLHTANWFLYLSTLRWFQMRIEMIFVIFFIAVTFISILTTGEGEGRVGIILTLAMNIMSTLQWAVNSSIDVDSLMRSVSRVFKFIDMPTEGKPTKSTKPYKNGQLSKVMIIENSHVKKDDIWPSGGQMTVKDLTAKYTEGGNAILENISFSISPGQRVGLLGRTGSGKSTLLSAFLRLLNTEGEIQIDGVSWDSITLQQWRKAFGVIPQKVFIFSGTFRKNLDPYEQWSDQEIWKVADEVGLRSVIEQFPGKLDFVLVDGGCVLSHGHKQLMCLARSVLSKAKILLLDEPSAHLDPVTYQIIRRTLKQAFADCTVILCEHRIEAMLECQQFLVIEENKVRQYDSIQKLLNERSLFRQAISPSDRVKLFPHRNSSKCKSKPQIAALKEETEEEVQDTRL
T1 sequence (P13569 with tags, fused parts or gaps DEL508-508): as above

As to `CCOC(=O)C1(C)CCN(c2cccc(S(=O)(=O)Nc3ccc(Cl)c(-c4cc(F)ccc4C)n3)n2)CC1` [Example 256, ethyl 1-(6-(N-(5-chloro-6-(5-fluoro-2-methylphenyl)pyridin-2-yl)sulfamoyl)pyridin-2-yl)-4-methylpiperidine-4-carboxylate], in test [1], the Emax was found to be 662% and the EC50 (usually the concentration giving half of the maximal effect) was 2780 nM. Further, in test [2], the “MTECC24 CFHBEC- Amax %” value is recorded as 52.6% and the EC50 came to 2.9 nM.
In the same order, the values of `Cc1ccc(F)cc1-c1nc(NS(=O)(=O)c2cccc(N3CCN[C@@H](CO)C3)n2)ccc1C(F)(F)F` [Example 174, (R)—N-(6-(5-fluoro-2-methylphenyl)-5-(trifluoromethyl)pyridin-2-yl)-6-(3-(hydroxymethyl)piperazin-1-yl)pyridine-2-sulfonamide Hydrochloride] are 515%, 2640 nM, 57.1% and 207 nM.
With `Cc1ccc(F)cc1-c1nc(NS(=O)(=O)c2cccc(N3CCC[C@H](C(=O)O)C3)n2)ccc1C(F)(F)F` [Example 359, (3S)-1-(6-{[6-(5-fluoro-2-methylphenyl)-5-(trifluoromethyl)pyridin-2-yl]sulfamoyl}pyridin-2-yl)piperidine-3-carboxylic Acid], in test [1], the Emax turned out to be 648% and the EC50 was 1960 nM. For the same compound, in test [2], the “MTECC24 CFHBEC- Amax %” value is given as 86.7% and the EC50 amounted to 2.04 nM.
As for `Cc1ccccc1-c1nc(NS(=O)(=O)c2cccc(N3CCN(C4COC4)CC3)n2)ccc1C(F)(F)F` [Example 187, 6-(4-(oxetan-3-yl)piperazin-1-yl)-N-(6-(o-tolyl)-5-(trifluoromethyl)pyridin-2-yl)pyridine-2-sulfonamide], in test [1], the Emax was found to be 634% and the EC50 stood at 2560 nM. Also, in test [2], the “MTECC24 CFHBEC- Amax %” value is on record as 78.8% and the EC50 is 92 nM.
Take `Cc1cccc(C)c1-c1nc(NS(=O)(=O)c2cccc(N)n2)ccc1Br` [Example 3, 6-amino-N-(5-bromo-6-(2,6-dimethylphenyl)pyridin-2-yl)pyridine-2-sulfonamide]: in test [1], the Emax is 688% and the concentration for a half-maximal effect (EC50) was found to be 1440 nM. In addition, in test [2], the “MTECC24 CFHBEC- Amax %” value was found to be 60.3% and the EC50 worked out at 1.9 nM.
For the compound `Cc1cccc(C)c1-c1nc(NS(=O)(=O)c2cccc(N3CC(C)(O)C3)n2)ccc1Cl` [Example 210, N-(5-chloro-6-(2,6-dimethylphenyl)pyridin-2-yl)-6-(3-hydroxy-3-methylazetidin-1-yl)pyridine-2-sulfonamide], in test [1], the Emax is 507% and the EC50 worked out at 716 nM. In addition, in test [2], the “MTECC24 CFHBEC- Amax %” value worked out at 68.7% and the concentration giving a half-maximal response (EC50) was 2.2 nM.
On the same counts, the results for `Cc1ccccc1-c1nc(NS(=O)(=O)c2cccc(N[C@H]3C[C@H](O)C3)n2)ccc1C(F)(F)F` [Example 284, N-[6-(2-methylphenyl)-5-(trifluoromethyl)pyridin-2-yl]-6-{[(1r,3r)-3-hydroxycyclobutyl]amino}pyridine-2-sulfonamide] are 493%, 2280 nM, 85.2% and 0.9 nM.
Take `Cc1ccccc1-c1nc(NS(=O)(=O)c2cccc(N3CCNCC3)n2)ccc1C(F)(F)F` [Example 161, 6-(piperazin-1-yl)-N-(6-(o-tolyl)-5-(trifluoromethyl)pyridin-2-yl)pyridine-2-sulfonamide (HCl Salt)]: in test [1], the Emax amounted to 222% and the EC50 was found to be 2900 nM. Besides, in test [2], the “MTECC24 CFHBEC- Amax %” value worked out at 88.2% and the concentration giving a half-maximal response (EC50) was determined as 91.6 nM.
In the case of `Cc1ccc(F)cc1-c1nc(NS(=O)(=O)c2ccnc(N)c2)ccc1C(F)(F)F` [Example 42, 2-amino-N-(6-(5-fluoro-2-methylphenyl)-5-(trifluoromethyl)pyridin-2-yl)pyridine-4-sulfonamide], in test [1], the Emax came out at 367% and the half-maximal effective concentration (EC50) was 2260 nM. In test [2], the “MTECC24 CFHBEC- Amax %” value was 72.4% and the half-maximal effective concentration (EC50) came out at 39.9 nM.
As for `Cc1ccc(F)cc1-c1nc(NS(=O)(=O)c2cccc(N[C@@H]3[C@H](CO)[C@H]4CC[C@@H]3O4)n2)ccc1Cl` [Example 128, N-(5-chloro-6-(5-fluoro-2-methylphenyl)pyridin-2-yl)-6-(((1S,2R,3R,4R)-3-(hydroxymethyl)-7-oxabicyclo[2.2.1]heptan-2-yl)amino)pyridine-2-sulfonamide], in test [1], the Emax worked out at 730% and the EC50 amounted to 2240 nM. Also, in test [2], the “MTECC24 CFHBEC- Amax %” value is 61.9% and the concentration giving a half-maximal response (EC50) came to 5.3 nM.
`Cc1ccccc1-c1nc(NS(=O)(=O)c2cccc(N3CCNC[C@@H]3C)n2)ccc1C(F)(F)F` [Example 170, (S)-6-(2-methylpiperazin-1-yl)-N-(6-(o-tolyl)-5-(trifluoromethyl)pyridin-2-yl)pyridine-2-sulfonamide Hydrochloride]: in test [1], the Emax was 306% and the EC50 came out at 2200 nM. Moreover, in test [2], the “MTECC24 CFHBEC- Amax %” value is reported as 63.3% and the concentration giving a half-maximal response (EC50) worked out at 174 nM.
As to `Cc1ccccc1-c1nc(NS(=O)(=O)c2cccc(N3CC[C@@H](N)C3)n2)ccc1C(F)(F)F` [Example 119, (R)-6-(3-aminopyrrolidin-1-yl)-N-(6-(o-tolyl)-5-(trifluoromethyl)pyridin-2-yl)pyridine-2-sulfonamide Hydrochloride], in test [1], the Emax is 411% and the EC50 amounted to 1830 nM. In test [2], the “MTECC24 CFHBEC- Amax %” value amounted to 70.2% and the EC50 amounted to 55.3 nM.
Regarding `O=S(=O)(Nc1ccc(Cl)c(-c2ccccc2Cl)n1)c1cccc(N2CC(O)C2)n1` [Example 227, N-(5-chloro-6-(2-chlorophenyl)pyridin-2-yl)-6-(3-hydroxyazetidin-1-yl)pyridine-2-sulfonamide], in test [1], the Emax turned out to be 403% and the half-maximal effective concentration (EC50) worked out at 2670 nM. Further, in test [2], the “MTECC24 CFHBEC- Amax %” value was found to be 104.9% and the EC50 worked out at 49.1 nM.
On to `Cc1ccccc1-c1nc(NS(=O)(=O)c2cccc(N3CCN(C(=O)OC(C)(C)C)[C@H](C)C3)n2)ccc1C(F)(F)F` [Example 166, tert-butyl (R)-2-methyl-4-(6-(N-(6-(o-tolyl)-5-(trifluoromethyl)pyridin-2-yl)sulfamoyl)pyridin-2-yl)piperazine-1-carboxylate], for which, in test [1], the half-maximal effective concentration (EC50) came out at 744 nM. In test [2], the “MTECC24 CFHBEC- Amax %” value worked out at 62.4% and the concentration giving a half-maximal response (EC50) turned out to be 11.8 nM.
Consider `Cc1ccccc1-c1nc(NS(=O)(=O)c2cccc(N3CCN(C(=O)OC(C)(C)C)CC3)n2)ccc1C(F)(F)F` [Example 160, tert-butyl 4-(6-(N-(6-(o-tolyl)-5-(trifluoromethyl)pyridin-2-yl)sulfamoyl)pyridin-2-yl)piperazine-1-carboxylate], for which, in test [1], the Emax was determined as 476% and the EC50 is 743 nM. Moreover, in test [2], the “MTECC24 CFHBEC- Amax %” value is 88.2% and the concentration giving a half-maximal response (EC50) was 23.3 nM.
`Cc1cccc(C)c1-c1nc(NS(=O)(=O)c2cccc(N[C@H]3C[C@H](O)C3)n2)ccc1Cl` [Example 287, N-[5-chloro-6-(2,6-dimethylphenyl)pyridin-2-yl]-6-{[(1r,3r)-3-hydroxycyclobutyl]amino}pyridine-2-sulfonamide]: in test [1], the Emax was found to be 384% and the EC50 was found to be 1410 nM. In addition, in test [2], the “MTECC24 CFHBEC- Amax %” value is given as 74.8% and the EC50 turned out to be 7.1 nM.
